# Experimental data published in patent US7105158B1, “Methods of administering microencapsulated materials for immune modulated diseases” (priority 1992, dated 2006).
# B1: M-CSF solution: Macrophage colony stimulating factor in solution (protein, UniProt P09603 33-554, looked up)
# Macrophage colony-stimulating …: EEVSEYCSHMIGSGHLQSLQRLIDSQMETSCQITFEFVDQEQLKDPVCYLKKAFLLVQDIMEDTMRFRDNTPNAIAIVQLQELSLRLKSCFTKDYEEHDKACVRTFYETPLQLLEKVKNVFNETKNLLDKDWNIFSKNCNNSFAECSSQDVVTKPDCNCLYPKAIPSSDPASVSPHQPLAPSMAPVAGLTWEDSEGTEGSSLLPGEQPLHTVDPGSAKQRPPRSTCQSFEPPETPVVKDSTIGGSPQPRPSVGAFNPGMEDILDSAMGTNWVPEEASGEASEIPVPQGTELSPSRPGGGSMQTEPARPSNFLSASSPLPASAKGQQPADVTGTALPRVGPVRPTGQDWNHTPQKTDHPSALLRDPPEPGSPRISSLRPQGLSNPSTLSAQPQLSRSHSSGSVLPLGELEGRRSTRDRRSPAEPEGGPASEGAARPLPRFNSVPLTDTGHERQSEGSFSPQLQESVFHLLVPSVILVLLAVGGLLFYRWRRRSHQEPQRADSPLEQPEGSPLTQDDRQVELPV
# Assays:
# [1] = tested on: B-16 cells (malignant melanoma); assay: Malignant melanoma in mice: survival; format: in vivo
# Procedure: In vivo studies were carried out to assess the effect of the above combination therapy, both in the solution form and in the microencapsulated form in the treatment of cancer, in order to examine any possible advantages of the microencapsulated form of the drugs. The cytokine levels (eg. TNFa and IL1β were also evaluated after treatment.
# Male C57BL/6 mice weighing approximately 18-20 g were anesthetized with light ether vapor and were injected subcutaneously with B-16 cells (1×10^6 cells). Their weights, tumor size and survival rate (in days) were measured daily. The tumor size was followed by measuring the long axis of the tumor daily. The study began once the tumor size reached 0.5 cm in diameter. The animals were divided into control and treatment groups. The control groups received phosphate buffered saline, blank PLGA microspheres or blank albumin microspheres. The treated groups received the following dosing schedule: Methotrexate solution (2 mg/kg or 15 mg/kg) administered s.c. daily or every three days. The M-CSF solution (10 microgram/kg or 100 microgram/kg) administered i.p. daily. The MTX microspheres (2 mg/kg or 15 mg/kg) and/or the M-CSF microspheres (10 microgram/kg or 100 microgram/kg) administered s.c. and i.p. respectively, alone or in combination therapy.
# [2] = tested on: OKT3 induced TNFa release; assay: Inhibition of OKT3 induced cytokine release in blood: TNFa; format: cell-based; settings: human blood, OKT3 1 μg/mL, 37° C., 24 hr; Grp 2 OKT3+Blank MC, Grp 3 TNFa NA 1 μg/mL+IL1β NA 2 μg/mL+OKT3
# From the text: (§1) OKT3 is a murine monoclonal antibody to the CD3 antigen of human T cells and is used to treat transplant rejection. The high incidence of adverse reactions associated with OKT3 is thought to be related to the induction of cytokines. The purpose of this study was to determine if microencapsulated (MC) neutralizing antibodies (NA) to human TNFa and IL1β which are readily phagocytized by macrophages can inhibit the release of TNFa, IL1β, and IL6 following OKT3 challenge in vitro.
# (§2) Microcapsules were prepared using the method from Example 1 using an albumin matrix. Blood was collected from 10 healthy subjects and separated into aliquots for the following groups. • Grp 1) Blank MC • Grp 2) OKT3 1 μg/mL+Blank MC • Grp 3) TNFa NA 1 μg/mL+IL1β NA 2 μg/mL+OKT3 1 μg/mL. Aliquots were incubated at 37° C. for 24 hr. Blood was assayed for TNFa, […], and IL6 at 0, 2, 6, 24 hr by ELISA. C) Results
# OKT3 induced IL6 release = assay: Inhibition of OKT3 induced cytokine release in blood: IL6; format: cell-based; settings: human blood, OKT3 1 μg/mL, 37° C., 24 hr
# From the text: as §1, §2
molecule,measurement,setting,value
"CN(Cc1cnc2nc(N)nc(N)c2n1)c1ccc(C(=O)N[C@@H](CCC(=O)O)C(=O)O)cc1 [MTX solution, methotrexate]",mean survival,[1]; 2 mg/kg s.c. every 3 days,12.8 days
same,mean survival time,[1]; 15 mg/kg s.c. every 3 days,14.2 days
OKT3: murine monoclonal antibody to the CD3 antigen of human T cells,Peak TNFa,[2],655 ± 71 pg/mL
same,Peak IL6,OKT3 induced IL6 release,664 ± 60 pg/mL
B1,mean survival time,[1]; 10 microgram/kg i.p. daily,"14,2 days"
